From US20130245355A1, “3-HETARYL-SUBSTITUTED PYRROLO[2,3 B]PYRIDINE DERIVATIVES AS PDK1 INHIBITORS” (MERCK PATENT GMBH, priority 2010, published 2013)

Tests used:
PDK1 [1] = biological target: T1, PDK1 (Homo sapiens, UniProt O15530); assay: Test for the inhibition of PDK1 (flashplate, 33P-ATP); settings: His6-PDK1 (1-50) 3.4 nM, 4 μM ATP, 30° C., 60 min; read-out: IC50 [PDK1] biochemical
T1 construct: His6 (N)
T1 sequence (O15530 51-556 limits assumed): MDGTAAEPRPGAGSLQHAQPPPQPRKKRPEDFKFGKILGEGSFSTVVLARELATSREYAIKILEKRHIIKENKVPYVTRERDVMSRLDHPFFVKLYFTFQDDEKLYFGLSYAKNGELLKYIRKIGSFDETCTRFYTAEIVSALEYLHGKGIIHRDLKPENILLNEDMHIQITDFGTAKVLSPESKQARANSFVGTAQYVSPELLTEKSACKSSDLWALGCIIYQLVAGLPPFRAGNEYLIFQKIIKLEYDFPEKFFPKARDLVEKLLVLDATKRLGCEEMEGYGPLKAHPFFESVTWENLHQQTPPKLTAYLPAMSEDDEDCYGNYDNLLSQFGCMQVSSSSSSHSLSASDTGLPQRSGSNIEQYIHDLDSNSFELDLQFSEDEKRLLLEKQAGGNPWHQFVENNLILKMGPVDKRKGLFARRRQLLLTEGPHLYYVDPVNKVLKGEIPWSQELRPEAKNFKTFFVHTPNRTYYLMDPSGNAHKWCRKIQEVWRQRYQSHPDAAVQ
Description: The experimental batches are carried out in a flashplate system with 384 wells/microtitration plate.
In each case, the PDK1 sample His6-PDK1 (1-50) (3.4 nM), the PDK1 substrate biotin-bA-bA-[…] (400 nM), 4 μM ATP (with 0.2μ Ci of ^33P-ATP/well) and the test substance in 50 μl of conventional experimental solution per well are incubated at 30° C. for 60 min. The test substances are employed in corresponding concentrations (if desired in a dilution series). The control is carried out without test substance. The reaction is stopped using standard methods and washed. The activity of the kinase is measured via the incorporated radioactivity in top count. In order to determine the non-specific kinase reaction (blank value), the experimental batches are carried out in the presence of 100 nM staurosporin.
The radioactivity (decompositions per minute) of the blank value (no use of test substance in the presence of staurosporin) is subtracted from all other radioactivity values. The controls (kinase activity without test substance) are set equal to 100 percent and all other radioactivity values (after subtracting the blank value) are expressed set in relation thereto (for example in % of the control).
IC50 values (50% inhibition) are determined with the aid of statistics programmes, such as, for example, RS1.

PDK1 [2] = biological target: T2, PDK1 (Homo sapiens, UniProt O15530); assay: Cellular testing of PDK1 kinase inhibitors in PC3 cells (Luminex, phospho-T308-PKB); assay type: cell-based; settings: 30 min, serum-free
T2 construct: endogenous in cells; host or cells: PC3 cells
T2 sequence (O15530 1-556): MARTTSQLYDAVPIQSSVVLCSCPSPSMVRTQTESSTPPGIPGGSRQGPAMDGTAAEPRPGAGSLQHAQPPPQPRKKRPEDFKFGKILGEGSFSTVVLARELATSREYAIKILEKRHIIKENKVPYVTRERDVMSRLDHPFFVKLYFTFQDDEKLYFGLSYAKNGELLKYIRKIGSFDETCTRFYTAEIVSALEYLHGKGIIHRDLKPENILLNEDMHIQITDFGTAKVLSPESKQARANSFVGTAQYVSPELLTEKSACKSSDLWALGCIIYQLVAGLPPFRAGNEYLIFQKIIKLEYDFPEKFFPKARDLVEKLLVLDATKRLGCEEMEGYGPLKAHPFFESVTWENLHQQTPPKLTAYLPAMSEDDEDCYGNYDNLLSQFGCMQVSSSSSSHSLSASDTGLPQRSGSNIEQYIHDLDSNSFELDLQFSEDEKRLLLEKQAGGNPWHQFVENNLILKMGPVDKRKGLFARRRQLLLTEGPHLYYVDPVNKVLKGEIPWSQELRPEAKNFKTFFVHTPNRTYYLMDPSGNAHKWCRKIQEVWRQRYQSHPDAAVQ
Description: Method for the Cellular Testing of PDK1 Kinase Inhibitors in PC3 Cells.
The cellular assay for the determination of the PDK1 kinase activity is carried out as a Luminex assay in the 96-well format. PC3 cells are sown at 20,000 cells per well in 100 μl of medium (45% of […]/45% of Ham's F12/10% of FCS) and incubated on the following day for 30 min with a serial dilution of the test substance (7 concentrations) under serum-free conditions. The cells are subsequently lysed using 90 μl of lysis buffer (20 mM tris/HCl pH 8.0, 150 mM NaCl, 1% of NP40, 10% of glycerol, 1% of phosphatase inhibitor I, 1% of phosphatase inhibitor II, 0.1% of protease inhibitor cocktail III, 0.01% of benzonase) per well, and the lysates are separated off from insoluble cell constituents by means of centrifugation through a 96-well filter plate (0.65 μm). The lysates are incubated overnight at 4° C. with shaking with Luminex beads to which an anti-total PKB antibody is coupled. The detection is carried out on the following day by addition of a phospho-T308-PKB antibody and a species-specific […] secondary antibody. The detection of phospho T308-PKB is carried out by measurement in a Luminex100 instrument by determination of 100 events per cavity in a measurement time of 60 sec. As pharmacological blank, the signals obtained from cells which have been treated with 10 μM staurosporin are subtracted from all other batches. The control value used for maximum phosphorylation of PKB on T308 are the signals from cells which have only been treated with the solvent (0.3% of DMSO). The values of the batches treated with test substance are calculated therefrom as percentage of control, and IC50 values are determined by means of RS 1.

`Cn1cc(-c2cnc3[nH]cc(-c4n[nH]c(C(O)c5ccccc5)n4)c3c2)cn1` (stereo not shown) [A30] gave an IC50 (PDK1 [1]) of 0.0005 to 1 µM.
Work on `COC(C)(c1ccccc1)c1cc(-c2c[nH]c3ncc(-c4cnn(C)c4)cc23)nn1C` (stereo not shown) [A73] yielded an IC50 (PDK1 [1]) of 1 to 10 µM.
Work on `Cn1cc(-c2cnc3[nH]cc(-c4cc(C(O)(c5ccccc5)C5CCOCC5)[nH]n4)c3c2)cn1` (stereo not shown) [A101, {5-[5-(1-methyl-1H-pyrazol-4-yl)-1H-pyrrolo[2,3-b]pyridin-3-yl]-2H-pyrazol-3-yl}phenyl(tetrahydropyran-4-yl)methanol] yielded an IC50 (PDK1 [1]) of 0.0005 to 1 µM.
For `CC[C@@](O)(c1cc(-c2c[nH]c3ncc(-c4cnn(C)c4)cc23)no1)c1ccccc1F` (single isomer, unassigned) [A93], the IC50 (PDK1 [1]) was 0.0005 to 1 µM.
Work on `CCOC(c1ccccc1)c1cc(-c2c[nH]c3ncc(-c4cnn(C)c4)cc23)n[nH]1` (stereo not shown) [A90] yielded an IC50 (PDK1 [1]) of 0.0005 to 1 µM.
Compound `Cn1cc(-c2cnc3[nH]cc(-c4nnc(C5(c6ccnc(O)c6)CC5)o4)c3c2)cn1` [A111] has an IC50 (PDK1 [1]) of 0.0005 to 1 µM.
Compound `Cn1cc(-c2cnc3[nH]cc(-c4noc(Cc5ccccc5F)n4)c3c2)cn1` [A13] has an IC50 (PDK1 [1]) of 1 to 10 µM.
For `Cn1cc(-c2cnc3[nH]cc(-c4nnc(C(N)c5cccnc5)o4)c3c2)cn1` (stereo not shown) [A115], the IC50 (PDK1 [1]) was 1 to 10 µM.
`Cn1cc(-c2cnc3[nH]cc(-c4cc(C(O)(c5ccccc5)C5CCOCC5)no4)c3c2)cn1` (stereo not shown) [A102] showed an IC50 (PDK1 [1]) of 0.0005 to 1 µM.
`Cn1cc(-c2cnc3[nH]cc(-c4nnc([C@@H](N)c5ccccc5)o4)c3c2)cn1` [A109, C—((S)—C-{5-[5-(1-methyl-1H-pyrazol-4-yl)-1H-pyrrolo[2,3-b]-pyridin-3-yl]-1,3,4-oxadiazol-2-yl}-C-phenyl)methylamine] was tested, and the IC50 (PDK1 [1]) was 0.0005 to 1 µM.
With `CCN(CC)Cc1cc(-c2c[nH]c3ncc(-c4cnn(C)c4)cc23)no1` [A104] the IC50 (PDK1 [1]) was 0.0005 to 1 µM.
With `Cn1cc(-c2cnc3[nH]cc(-c4nnc(C(C)(C)c5ccnnc5)o4)c3c2)cn1` [A121, 5-(1-methyl-1H-pyrazol-4-yl)-3-[5-(1-methyl-1-pyridazin-4-ylethyl)-1,3,4-oxadiazol-2-yl]-1H-pyrrolo[2,3-b]pyridine] the IC50 (PDK1 [1]) was 1 to 10 µM.
`Cn1cc(-c2cnc3[nH]cc(-c4nnc(C(O)c5ccc(C(=O)NC6CCCCC6)cc5Cl)o4)c3c2)cn1` (stereo not shown) [A129, 3-chloro-N-cyclohexyl-4-(hydroxy-{5-[5-(1-methyl-1H-pyrazol-4-yl)-1H-pyrrolo[2,3-b]pyridin-3-yl]-1,3,4-oxadiazol-2-yl}methyl)benzamide] gave an IC50 (PDK1 [2]) of 1 to 10 µM.
For `Cn1cc(-c2cnc3[nH]cc(-c4cc(C(O)(c5ccccc5)C5CCOCC5)on4)c3c2)cn1` (stereo not shown) [A103], the IC50 (PDK1 [1]) was 0.0005 to 1 µM.
Work on `Cn1cc(-c2cnc3[nH]cc(-c4cc(C(C)(O)c5ccccc5)n(C)n4)c3c2)cn1` (stereo not shown) [A76] yielded an IC50 (PDK1 [1]) of 1 to 10 µM.
`Cn1cc(-c2cnc3[nH]cc(-c4cc(C(C)(O)c5ccnnc5)on4)c3c2)cn1` (stereo not shown) [A98, 1-{3-[5-(1-methyl-1H-pyrazol-4-yl)-1H-pyrrolo[2,3-b]pyridin-3-yl]isoxazol-5-yl}-1-pyridazin-4-ylethanol] was tested, and the IC50 (PDK1 [1]) was 0.0005 to 1 µM.
`Cn1cc(-c2cnc3[nH]cc(-c4nnc([C@H](N)c5ccccc5)o4)c3c2)cn1` [A108, C—((R)—C-{5-[5-(1-methyl-1H-pyrazol-4-yl)-1H-pyrrolo[2,3-b]pyridin-3-yl]-1,3,4-oxadiazol-2-yl}-C-phenyl)methylamine] gave an IC50 (PDK1 [1]) of 0.0005 to 1 µM.
For `CC[C@](O)(c1cc(-c2c[nH]c3ncc(-c4cnn(C)c4)cc23)no1)c1ccccc1F` (single isomer, unassigned) [A92], the IC50 (PDK1 [1]) was 0.0005 to 1 µM.
`Cc1sc(Cc2ccccc2)nc1-c1c[nH]c2ncc(-c3cnn(C)c3)cc12` [A3] showed an IC50 (PDK1 [2]) of 1 to 10 µM.
